Data: patent publication US20250179065A1, “HDAC6 INHIBITORS AND USES THEREOF” (Eikonizo Therapeutics, Inc., priority 2022, published 2025)

Experiments:
[1] = molecular target: Full length Human HDAC8 (Homo sapiens (Human), UniProt Q9BY41); experiment: Caliper endpoint assay for HDAC enzymatic activity (HDAC8); type: biochemical; conditions: in vitro enzymatic, 30 min pre-incubation, 1 μM FAM-RHKK(TFAc)-NH2 substrate
[2] = molecular target: Full length Human HDAC6 (Homo sapiens (Human), UniProt Q9UBN7); experiment: Caliper endpoint assay for HDAC enzymatic activity (HDAC6); type: biochemical; conditions: for IC50: in vitro enzymatic, 30 min pre-incubation, 1 μM FAM-RHKK(Ac)-NH2 substrate; for Selectivity (6 v 8) (fold): ratio of HDAC8 IC50/HDAC6 IC50
Full length Human HDAC6, sequence (Q9UBN7 whole entry): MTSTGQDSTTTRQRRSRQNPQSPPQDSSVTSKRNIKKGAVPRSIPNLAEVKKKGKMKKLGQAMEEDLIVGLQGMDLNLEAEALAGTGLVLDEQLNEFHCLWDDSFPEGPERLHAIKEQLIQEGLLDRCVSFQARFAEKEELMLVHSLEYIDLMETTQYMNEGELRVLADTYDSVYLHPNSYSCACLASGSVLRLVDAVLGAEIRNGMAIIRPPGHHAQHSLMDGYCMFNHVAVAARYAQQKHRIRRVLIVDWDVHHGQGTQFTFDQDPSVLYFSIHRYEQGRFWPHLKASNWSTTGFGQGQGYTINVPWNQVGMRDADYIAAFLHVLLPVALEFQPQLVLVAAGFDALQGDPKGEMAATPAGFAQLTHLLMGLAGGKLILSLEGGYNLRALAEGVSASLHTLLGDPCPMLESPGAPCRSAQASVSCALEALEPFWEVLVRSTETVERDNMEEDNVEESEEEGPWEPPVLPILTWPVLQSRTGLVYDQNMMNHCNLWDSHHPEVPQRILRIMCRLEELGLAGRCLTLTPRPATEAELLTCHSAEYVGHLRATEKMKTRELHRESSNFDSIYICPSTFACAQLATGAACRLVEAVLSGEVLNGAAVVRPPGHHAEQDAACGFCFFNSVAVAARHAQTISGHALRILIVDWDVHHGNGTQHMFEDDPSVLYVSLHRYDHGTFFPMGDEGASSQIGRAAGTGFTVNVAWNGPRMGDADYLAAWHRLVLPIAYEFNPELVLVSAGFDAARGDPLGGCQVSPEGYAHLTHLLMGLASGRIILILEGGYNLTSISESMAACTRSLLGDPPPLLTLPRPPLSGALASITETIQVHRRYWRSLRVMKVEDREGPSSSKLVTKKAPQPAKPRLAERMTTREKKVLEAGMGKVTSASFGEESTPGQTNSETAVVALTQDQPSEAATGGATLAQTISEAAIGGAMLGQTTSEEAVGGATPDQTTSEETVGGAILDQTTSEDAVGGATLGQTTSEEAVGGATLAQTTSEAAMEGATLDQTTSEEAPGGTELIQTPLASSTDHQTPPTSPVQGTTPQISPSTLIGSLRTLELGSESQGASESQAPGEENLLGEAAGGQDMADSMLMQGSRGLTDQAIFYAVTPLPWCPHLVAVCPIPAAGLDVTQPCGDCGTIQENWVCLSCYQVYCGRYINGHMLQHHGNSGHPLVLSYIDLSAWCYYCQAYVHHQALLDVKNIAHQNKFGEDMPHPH

Full length Human HDAC8, sequence (Q9BY41 whole entry): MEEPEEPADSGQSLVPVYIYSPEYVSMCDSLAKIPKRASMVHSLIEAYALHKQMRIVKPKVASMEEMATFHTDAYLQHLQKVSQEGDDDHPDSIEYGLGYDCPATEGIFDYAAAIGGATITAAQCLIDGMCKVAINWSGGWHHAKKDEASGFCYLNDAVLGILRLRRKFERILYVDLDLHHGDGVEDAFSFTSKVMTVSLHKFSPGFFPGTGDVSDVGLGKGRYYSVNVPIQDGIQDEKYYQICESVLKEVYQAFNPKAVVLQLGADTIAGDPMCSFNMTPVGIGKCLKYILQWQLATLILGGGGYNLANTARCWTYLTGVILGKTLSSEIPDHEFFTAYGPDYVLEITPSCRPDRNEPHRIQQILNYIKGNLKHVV

IC50 [1] [nM]	IC50 [2] [nM]	Selectivity (6 v 8) (fold) [2]	Structure (SMILES)
10000 to 100000	100 to 1000	III (III: >10-100)	O=C(NO)c1cnc2c(c1)CCN([C@@H]1CCCC3(CCC3)C1)C2 (single isomer, unassigned) [Compound 194]
1000 to 10000	1 to 100	IV (IV: >100-1000)	O=C(NO)c1cnc2c(c1)CCN([C@H]1CCCC3(CCC3)C1)C2 (single isomer, unassigned) [Compound 195]
10000 to 100000	1 to 100	IV (IV: >100-1000)	O=C(NO)c1cnc2c(c1)CCN([C@H]1CCC3(CCC3)C1)C2 (single isomer, unassigned) [Compound 383]
10000 to 100000	1 to 100	IV (IV: >100-1000)	O=C(NO)c1cnc2c(c1)CCN(CC13CC4CC(CC(C4)O1)C3)C2 [Compound 14]
10000 to 100000	1 to 100	IV (IV: >100-1000)	O=C(NO)c1cnc2c(c1)CCN(C1CC3(CCCCC3)C1)C2 [Compound 16, N-hydroxy-7-(spiro[3.5]nonan-2-yl)-5,6,7,8-tetrahydro-1,7-naphthyridine-3-carboxamide]
1000 to 10000	100 to 1000	III (III: >10-100)	O=C(NO)c1cnc2c(c1)CCN(C1CC3(CCOCC3)C1)C2 [Compound 179, N-hydroxy-7-(7-oxaspiro[3.5]nonan-2-yl)-5,6,7,8-tetrahydro-1,7-naphthyridine-3-carboxamide]
1000 to 10000	1 to 100	IV (IV: >100-1000)	O=C(NO)c1cnc2c(c1)CCN(C1CC3(CCCC3)C1)C2 [Compound 183, N-hydroxy-7-(spiro[3.4]octan-2-yl)-5,6,7,8-tetrahydro-1,7-naphthyridine-3-carboxamide]
10000 to 100000	100 to 1000	IV (IV: >100-1000)	O=C(NO)c1cnc2c(c1)CCN([C@H]1C[C@@]3(CCOC3)C1)C2 [Compound 188, N-hydroxy-7-((2r,4r)-6-oxaspiro[3.4]octan-2-yl)-5,6,7,8-tetrahydro-1,7-naphthyridine-3-carboxamide]
10000 to 100000	100 to 1000	IV (IV: >100-1000)	O=C(NO)c1cnc2c(c1)CCN([C@H]1C[C@]3(CCOC3)C1)C2 [Compound 189, N-hydroxy-7-((2s,4s)-6-oxaspiro[3.4]octan-2-yl)-5,6,7,8-tetrahydro-1,7-naphthyridine-3-carboxamide]
1000 to 10000	1 to 100	IV (IV: >100-1000)	O=C(NO)c1cnc2c(c1)CCN(C1CCC3(CCC3)CC1)C2 [Compound 192, N-hydroxy-7-(spiro[3.5]nonan-7-yl)-5,6,7,8-tetrahydro-1,7-naphthyridine-3-carboxamide]
10000 to 100000	100 to 1000	III (III: >10-100)	O=C(NO)c1cnc2c(c1)CCN(C1CC3(CCNCC3)C1)C2 [Compound 197, N-hydroxy-7-(7-azaspiro[3.5]nonan-2-yl)-5,6,7,8-tetrahydro-1,7-naphthyridine-3-carboxamide]
1000 to 10000	100 to 1000	III (III: >10-100)	CN1CCC2(CC1)CC(N1CCc3cc(C(=O)NO)cnc3C1)C2 [Compound 198, N-hydroxy-7-(7-methyl-7-azaspiro[3.5]nonan-2-yl)-5,6,7,8-tetrahydro-1,7-naphthyridine-3-carboxamide]
10000 to 100000	100 to 1000	III (III: >10-100)	CC(=O)N1CCC2(CC1)CC(N1CCc3cc(C(=O)NO)cnc3C1)C2 [Compound 199, 7-(7-acetyl-7-azaspiro[3.5]nonan-2-yl)-N-hydroxy-5,6,7,8-tetrahydro-1,7-naphthyridine-3-carboxamide]
1000 to 10000	100 to 1000	III (III: >10-100)	CN1CCC2(CCC(N3CCc4cc(C(=O)NO)cnc4C3)C2)CC1 (centres unmarked) [Compound 417]
10000 to 100000	1000 to 10000	III (III: >10-100)	O=C(NO)c1cc2c(cn1)CN(C1CC3(CCCCC3)C1)CC2 [DDD]
> 100000	100 to 1000	V (V: >1000)	O=C(NO)c1ccc2c(n1)CCN(C1CC3(CCCCC3)C1)C2 [EEE]
> 100000	> 100000	II (II: >1-10)	O=C(NO)c1ncc2c(n1)CCN(C1CC3(CCCCC3)C1)C2 [FFF, N-hydroxy-6-(spiro[3.5]nonan-2-yl)-5,6,7,8-tetrahydropyrido[4,3-d]pyrimidine-2-carboxamide]

Structure (SMILES)	IC50 [1] [nM]	IC50 [2] [nM]	Selectivity (6 v 8) (fold) [2]
O=C(NO)c1cnc2c(c1)CCN(C1CC3(CCCNC3)C1)C2 (single isomer, unassigned) [Compound 341]	10000 to 100000	–	–
O=C(NO)c1cnc2c(c1)CCN(C1CC3(CCCNC3)C1)C2 (single isomer, unassigned) [Compound 342]	10000 to 100000	–	–
CN1CCC[C@]2(C1)C[C@@H](N1CCc3cc(C(=O)NO)cnc3C1)C2 (single isomer, unassigned) [Compound 343]	1000 to 10000	100 to 1000	III (III: >10-100)
CN1CCC[C@]2(C1)C[C@H](N1CCc3cc(C(=O)NO)cnc3C1)C2 (single isomer, unassigned) [Compound 344]	1000 to 10000	100 to 1000	III (III: >10-100)
O=C(NO)c1cnc2c(c1)CCN(C1CC3(CNC3)C1)C2 [Compound 289]	10000 to 100000	100 to 1000	III (III: >10-100)
